# Reference: patent publication US5294603A, “Pharmaceutical compositions containing didemnins” (The Board of Trustees of The University of Illinois, priority 1992, dated 1994)
# Like-named read-outs stand apart in the source and are kept apart here. Numbered stars: 1 amine (or outer) side, 2 acyl side, 3 side chain; on linkers, the order of the positions; unused ones are H or OH. Bridge positions count the residues as written; N and C are the ends. Square brackets hold non-standard residues; d marks the D form. Peptide text beside a SMILES is read from it. * marks the point of attachment. X1 = CC[C@H](C)[C@@H](N[*:1])[C@@H](O)CC(=O)O[C@H](C(=O)[C@H](C)C(=O)[*:2])C(C)C; X9 = CCC(C)C(N[*:1])C(O)CC(=O)OC(C(=O)C(C)C(=O)[*:2])C(C)C; NMeY = CN[CH](Cc1ccc(O)cc1)C(=O)O; NMeCha = CN[C@@H](CC1CCCCC1)C(=O)O; Stearoyl = CCCCCCCCCCCCCCCCCC(=O)*; X8 = CC(C(=O)*)N1C(=O)c2ccccc2C1=O; dNMeL = CN[C@H](CC(C)C)C(=O)O; pGlu = O=C1CC[C@@H](C(=O)O)N1; Lauroyl = CCCCCCCCCCCC(=O)*; NMeL = CN[CH](CC(C)C)C(=O)O; X5 = O=C(Cc1ccccc1)C(=O)*; Octanoyl = CCCCCCCC(=O)*; Pyruvoyl = CC(=O)C(=O)*; Hexanoyl = CCCCCC(=O)*; Pentanoyl = CCCCC(=O)*; Lac = C[C@H](O)C(=O)O; Sar = CNCC(=O)O
# Legend:
# [1] = test system: L1210 murine leukemia cells; settings: Table 9
# Visna virus (VIV) = assay type: cell-based; set-up: key to % Protection / VIV Protection: I, indeterminate
# L1210 [2] = settings: for cytotoxicity (result in words): Table 1 footnote and text
# L1210 [3] = assay: L1210 cytotoxicity, inhibition at fixed doses (Table 10); assay type: cell-based, murine
# [4] = test system: Nb2 cells, rat T-cell node lymphoma; assay: Competitive binding with [3H]didemnin B to Nb2 cells; settings: 3 h at 37° C.
# Procedure: The immunosuppressive assay was performed by measuring competitive binding of tested compounds with [^3 H]didemnin B to Nb2 cells, rat T-cell node lymphoma. See, Russell, D. H., et al., J. Immunology, 1987, 138, 276-284.
# ^a Competing didemnins incubated with approximately 25 ng of [^3
# [5] = dose 25 ng/mL, tested 4/18/1991
# [6] = dose 250 ng/mL, tested 4/18/1991
# [7] = dose 25 ng/mL, tested 4/22/1990
# [8] = dose 250 ng/mL, tested 4/22/1990
compound,measurement,setting,value
"CC[C@H](C)[C@H]1NC(=O)[C@@H](NC(=O)[C@@H](CC(C)C)N(C)C(=O)[C@@H]2CCCN2C(=O)[C@H](C)OC(=O)[C@H](CCC(N)=O)NC(=O)[C@@H]2CCC(=O)N2)[C@@H](C)OC(=O)[C@H](Cc2ccc(OC)cc2)N(C)C(=O)[C@@H]2CCCN2C(=O)[C@H](CC(C)C)NC(=O)[C@@H](C)C(=O)[C@H](C(C)C)OC(=O)C[C@@H]1O [Didemnin M (12), Didemnin M] ([pGlu]Q[Lac]P[dNMeL]T[X1]LP[NMeY](Me); ester 6-C)",Cytotoxicity L1210 IC50,[1],0.4 ng/mL
same,VIV Protection,Visna virus (VIV),-73
"CCCCCC(=O)N(C)[C@H](CC(C)C)C(=O)N[C@@H]1C(=O)N[C@H]([C@@H](C)CC)[C@@H](O)CC(=O)O[C@@H](C(C)C)C(=O)[C@H](C)C(=O)N[C@@H](CC(C)C)C(=O)N2CCC[C@H]2C(=O)N(C)[C@@H](Cc2ccc(OC)cc2)C(=O)O[C@@H]1C [N^a -Hexanoyl-, N-hexanoyl didemnin A] (Hexanoyl-[dNMeL]T[X1]LP[NMeY](Me); ester 2-C)",cytotoxicity (result in words),L1210 [2],retained the cytotoxicity of didemnin B
same,Cytotoxicity percent L1210 inhibition,L1210 [2]; dose 5 ng/mL,73%
same,Cytotoxicity percent L1210 inhibition,L1210 [2]; dose 12.5 ng/mL,89%
same,Cytotoxicity percent L1210 inhibition,L1210 [2]; dose 25 ng/mL,92%
"CCCCCCCC(=O)N(C)[C@H](CC(C)C)C(=O)N[C@@H]1C(=O)N[C@H]([C@@H](C)CC)[C@@H](O)CC(=O)O[C@@H](C(C)C)C(=O)[C@H](C)C(=O)N[C@@H](CC(C)C)C(=O)N2CCC[C@H]2C(=O)N(C)[C@@H](Cc2ccc(OC)cc2)C(=O)O[C@@H]1C [N^a -Octanoyl-, N-octanoyl didemnin A] (Octanoyl-[dNMeL]T[X1]LP[NMeY](Me); ester 2-C)",cytotoxicity (result in words),L1210 [2],retained the cytotoxicity of didemnin B
same,Cytotoxicity percent L1210 inhibition,L1210 [2]; dose 5 ng/mL,89%
same,Cytotoxicity percent L1210 inhibition,L1210 [2]; dose 12.5 ng/mL,93%
same,Cytotoxicity percent L1210 inhibition,L1210 [2]; dose 25 ng/mL,94%
"CCCCC(=O)N(C)[C@H](CC(C)C)C(=O)N[C@@H]1C(=O)N[C@H]([C@@H](C)CC)[C@@H](O)CC(=O)O[C@@H](C(C)C)C(=O)[C@H](C)C(=O)N[C@@H](CC(C)C)C(=O)N2CCC[C@H]2C(=O)N(C)[C@@H](Cc2ccc(OC)cc2)C(=O)O[C@@H]1C [N^a -Pentanoyl-, N-pentanoyl didemnin A] (Pentanoyl-[dNMeL]T[X1]LP[NMeY](Me); ester 2-C)",cytotoxicity (result in words),L1210 [2],retained the cytotoxicity of didemnin B
same,Cytotoxicity percent L1210 inhibition,L1210 [2]; dose 5 ng/mL,56%
same,Cytotoxicity percent L1210 inhibition,L1210 [2]; dose 12.5 ng/mL,81%
same,Cytotoxicity percent L1210 inhibition,L1210 [2]; dose 25 ng/mL,91%
"CC[C@H](C)[C@H]1NC(=O)[C@@H](NC(=O)[C@@H](CC(C)C)N(C)C(=O)[C@@H]2CCCN2C(=O)C(=O)Cc2ccccc2)[C@@H](C)OC(=O)[C@H](Cc2ccc(OC)cc2)N(C)C(=O)[C@@H]2CCCN2C(=O)[C@H](CC(C)C)NC(=O)[C@@H](C)C(=O)[C@H](C(C)C)OC(=O)C[C@@H]1O [Phepyruv-Pro-DA, PhePyruv-Pro Didemnin A] (X5-P[dNMeL]T[X1]LP[NMeY](Me); ester 3-C)",IC50,L1210 cells,3.5 ng/mL
same,cytotoxicity compared with DDB,L1210 cells,only partially active
same,% Protection,Visna virus (VIV),I
"CCC(C)C1NC(=O)C(NC(=O)C(CC(C)C)N(C)C(=O)C2CCCN2C(=O)C(C)N2C(=O)c3ccccc3C2=O)C(C)OC(=O)C(Cc2ccc(OC)cc2)N(C)C(=O)C2CCCN2C(=O)C(CC(C)C)NC(=O)C(C)C(=O)C(C(C)C)OC(=O)CC1O (centres unmarked) [Phthalimidedidemnin B (82), Phthalimide didemnin B] (X8-P[NMeL]T[X9]LP[NMeY](Me); ester 3-C; configuration not given here)",Inhibition (%),L1210 [3]; [5],98%
same,Inhibition (%),L1210 [3]; [6],99%
"CC[C@H](C)[C@H]1NC(=O)[C@@H](NC(=O)[C@@H](CC(C)C)N(C)C(=O)CN(C)C(=O)C(C)=O)[C@@H](C)OC(=O)[C@H](Cc2ccc(OC)cc2)N(C)C(=O)[C@@H]2CCCN2C(=O)[C@H](CC(C)C)NC(=O)[C@@H](C)C(=O)[C@H](C(C)C)OC(=O)C[C@@H]1O [Pyruv-Sar-DA, Pyruv-Sar Didemnin A] (Pyruvoyl-[Sar][dNMeL]T[X1]LP[NMeY](Me); ester 3-C)",IC50,L1210 cells,1 ng/mL
same,cytotoxicity,L1210 cells,completely inactive
same,% Protection,Visna virus (VIV),I
"CC[C@H](C)[C@H]1NC(=O)[C@@H](NC(=O)[C@@H](CC(C)C)N(C)C(=O)[C@@H]2CCCN2C(C)=O)[C@@H](C)OC(=O)[C@H](Cc2ccc(OC)cc2)N(C)C(=O)[C@@H]2CCCN2C(=O)[C@H](CC(C)C)NC(=O)[C@@H](C)C(=O)[C@H](C(C)C)OC(=O)C[C@@H]1O [[Acetyl^9]Didemnin B (103), [Acetyl^9]didemnin B] (Ac-P[dNMeL]T[X1]LP[NMeY](Me); ester 3-C)",Cytotoxicity L1210 IC50,[1],0.2 ng/mL
same,Inhibition of [3H]didemnin B binding (%),[4]; 0.001 μg/mL,3%
same,Inhibition of [3H]didemnin B binding (%),[4]; 0.01 μg/mL,2%
same,Inhibition of [3H]didemnin B binding (%),[4]; 0.1 μg/mL,67%
same,Inhibition of [3H]didemnin B binding (%),[4]; 1 μg/mL,85%
same,VIV Protection,Visna virus (VIV),-123
"CC[C@H](C)[C@H]1NC(=O)[C@@H](NC(=O)[C@@H](CC(C)C)NC)[C@@H](C)OC(=O)[C@H](CC2CCCCC2)N(C)C(=O)[C@@H]2CCCN2C(=O)[C@H](CC(C)C)NC(=O)[C@@H](C)C(=O)[C@H](C(C)C)OC(=O)C[C@@H]1O [[H6 -N-MePhe^5] didemnin A (117), [Hexahydro-N-MePhe^5]didemnin A] (H-[dNMeL]T[X1]LP[NMeCha]; ester 2-C)",Inhibition (%),L1210 [3]; [5],25%
same,Inhibition (%),L1210 [3]; [7],75%
same,Inhibition (%),L1210 [3]; [6],94%
same,Inhibition (%),L1210 [3]; [8],98%
"CC[C@H](C)[C@H]1NC(=O)[C@@H](NC(=O)[C@@H](CC(C)C)N(C)C(=O)[C@@H]2CCCN2C(=O)[C@H](C)O)[C@@H](C)OC(=O)[C@H](CC2CCCCC2)N(C)C(=O)[C@@H]2CCCN2C(=O)[C@H](CC(C)C)NC(=O)[C@@H](C)C(=O)[C@H](C(C)C)OC(=O)C[C@@H]1O [[H6 -N-MePhe^5] didemnin B (118), [Hexahydro-N-MePhe^5]didemnin B]",Inhibition (%),L1210 [3]; [5],99%
same,Inhibition (%),L1210 [3]; [7],99%
same,Inhibition (%),L1210 [3]; [6],99%
same,Inhibition (%),L1210 [3]; [8],99%
"CC[C@H](C)[C@H]1NC(=O)[C@@H](NC(=O)[C@@H](CC(C)C)NC)[C@@H](C)OC(=O)[C@H](CC2CCC(OC)CC2)N(C)C(=O)[C@@H]2CCCN2C(=O)[C@H](CC(C)C)NC(=O)[C@@H](C)C(=O)[C@H](C(C)C)OC(=O)C[C@@H]1O (some centres unmarked) [[H6 Me2 Tyr^5]didemnin A (115), [HexahydroMe2 Tyr^5]didemnin A]",Inhibition (%),L1210 [3]; [7],17%
same,Inhibition (%),L1210 [3]; [8],94%
"CC[C@H](C)[C@H]1NC(=O)[C@@H](NC(=O)[C@@H](CC(C)C)N(C)C(=O)[C@@H]2CCCN2C(=O)[C@H](C)O)[C@@H](C)OC(=O)[C@H](CC2CCC(OC)CC2)N(C)C(=O)[C@@H]2CCCN2C(=O)[C@H](CC(C)C)NC(=O)[C@@H](C)C(=O)[C@H](C(C)C)OC(=O)C[C@@H]1O (some centres unmarked) [[H6 Me2 Tyr^5]didemnin B (116), [HexahydroMe2 Tyr^5]didemnin B]",Inhibition (%),L1210 [3]; [5],99%
same,Inhibition (%),L1210 [3]; [7],98%
same,Inhibition (%),L1210 [3]; [6],99%
same,Inhibition (%),L1210 [3]; [8],99%
"CCCCCCCCCCCC(=O)N(C)[C@H](CC(C)C)C(=O)N[C@@H]1C(=O)N[C@H]([C@@H](C)CC)[C@@H](O)CC(=O)O[C@@H](C(C)C)C(=O)[C@H](C)C(=O)N[C@@H](CC(C)C)C(=O)N2CCC[C@H]2C(=O)N(C)[C@@H](Cc2ccc(OC)cc2)C(=O)O[C@@H]1C [lauroyl, N-lauroyl didemnin A] (Lauroyl-[dNMeL]T[X1]LP[NMeY](Me); ester 2-C)",cytotoxicity (result in words),L1210 [2],inactive
"CC[C@H](C)[C@H]1NC(=O)[C@@H](NC(=O)[C@@H](CC(C)C)N(C)C(=O)[C@@H]2CCCN2C(=O)[C@H](C)OC(=O)[C@@H]2CCC(=O)N2)[C@@H](C)OC(=O)[C@H](Cc2ccc(OC)cc2)N(C)C(=O)[C@@H]2CCCN2C(=O)[C@H](CC(C)C)NC(=O)[C@@H](C)C(=O)[C@H](C(C)C)OC(=O)C[C@@H]1O [pGlu-didemnin B (113), O-Pyroglutamyldidemnin B] ([pGlu][Lac]P[dNMeL]T[X1]LP[NMeY](Me); ester 5-C)",Cytotoxicity L1210 IC50,[1],0.4 ng/mL
same,VIV Protection,Visna virus (VIV),-65
"CCCCCCCCCCCCCCCCCC(=O)N(C)[C@H](CC(C)C)C(=O)N[C@@H]1C(=O)N[C@H]([C@@H](C)CC)[C@@H](O)CC(=O)O[C@@H](C(C)C)C(=O)[C@H](C)C(=O)N[C@@H](CC(C)C)C(=O)N2CCC[C@H]2C(=O)N(C)[C@@H](Cc2ccc(OC)cc2)C(=O)O[C@@H]1C [stearoyl, N-stearoyl didemnin A] (Stearoyl-[dNMeL]T[X1]LP[NMeY](Me); ester 2-C)",cytotoxicity (result in words),L1210 [2],inactive
Didemnin D [Didemnin D (19)],Cytotoxicity L1210 IC50,[1],0.5 ng/mL
same,VIV Protection,Visna virus (VIV),-53
Didemnin E [Didemnin E (20)],Cytotoxicity L1210 IC50,[1],0.5 ng/mL
same,VIV Protection,Visna virus (VIV),-73
Didemnin X [Didemnin X (10)],Cytotoxicity L1210 IC50,[1],2 ng/mL
same,VIV Protection,Visna virus (VIV),-25
Didemnin Y [Didemnin Y (11)],Cytotoxicity L1210 IC50,[1],2 ng/mL
same,VIV Protection,Visna virus (VIV),-33
Isodidemnin A1 [Isodidemnin A1 (1a)],Cytotoxicity L1210 IC50,[1],10 ng/mL
same,VIV Protection,Visna virus (VIV),< 0
N-(CH3 ONsu)didemnin A [N-(CH3 ONsu)-didemnin A (111)],VIV Protection,Visna virus (VIV),-43
N-palmitoyl didemnin A,cytotoxicity (result in words),L1210 [2],inactive
Nordidemnin A [Nordidemnin A (21)],Cytotoxicity L1210 IC50,[1],30 ng/mL
same,VIV Protection,"Visna virus (VIV); Table 9, 0.1 μg/mL",< 0%
[AnhydroIst^1 ]Phthalimide didemnin B,Inhibition (%),L1210 [3]; [5],81%
same,Inhibition (%),L1210 [3]; [6],99%
